Laboratory results published in patent US8552253B2, “Screening of drug for attention deficit hyperactive disorder by using GIT1 knock-out mice as a novel ADHD mouse model” (Korea Advanced Institute of Science and Technology, priority 2011, dated 2013).

What was measured:
Type in all cases: in vivo
normal mouse (wild type) = assay: Open field test of normal mouse (control); conditions: peritoneal injection just before test, one time, amphetamine 4 mg/kg/day, methylphenidate 2 mg/kg/day, 60 minutes
Experimental: (§1) In order to observe hyperactivity of mice using the GIT1 knock-out mice of the present invention, an open field test was executed in a novel environment. A GIT1 knock-out mouse and a normal mouse (wild type) as a control, each mouse being aged 2 to 5 months, were prepared. An open space was prepared using a white box which is never exposed to the mice and has a dimension of 40-40-40 cm (width-length-height). After placing each mouse in the center of the open space and video shooting a distance of the mouse for 60 minutes, results thereof including, for example, a total distance, an average movement speed, a central space invasion rate, etc., were assayed through an activity analysis program. For analysis of behavior in the open space, amphetamine (4 mg/kg/day, one time) and methylphenidate (2 mg/kg/day, one time) used as ADHD protection drugs were administered through peritoneal injection just before placing the mouse therein, followed by immediately placing the mouse in the center of the open space.

GIT1 knock-out mouse [1] = assay: Open field test of GIT1 knock-out mouse; conditions: peritoneal injection just before test, one time, amphetamine 4 mg/kg/day, methylphenidate 2 mg/kg/day, 60 minutes, FIGS. 3B and 3C
Experimental: as §1

GIT1 knock-out mouse [2] = assay: EEG analysis of theta section waveform in the frontal lobe of GIT1 knock-out mouse; conditions: after administering amphetamine, compared to a control having saline, FIG. 7C
Experimental: A process of assaying an abnormal theta section waveform and a power spectrum density in the frontal lobe using the GIT1 knock-out mouse according to the present invention was executed after administering ketamine to a mouse through peritoneal injection at a dose of 150 mg/kg to anesthetize the mouse and fixing the head of the mouse to a stereotaxic instrument. EEG electrodes were inserted into both the right frontal lobe and the left frontal lobe. More particularly, a correct fixing position was set by calculating a correct coordinate having the front side of 2.8 mm and each lateral side of 0.8 mm with reference to the bregma, via the stereotaxic instrument. A grounding electrode was inserted into the occipital lobe. After inserting the electrodes and 1 week recovery period, the mouse was placed in an EEG chamber to measure a brain wave for 1 hour. EEG signals were amplified using a Grass model 7H polygraph (Grass Technologies) and digitalized at a sampling frequency of 2000 Hz using DIGIDATA 1320A (Molecular Devices), followed by acquisition of data using pClamp8.0 program (Axon Instruments) and analysis thereof.

GIT1 knock-out mouse [3] = assay: Novel object recognition test of GIT1 knock-out mouse; conditions: peritoneal injection 4 mg/kg/day, 20 minutes before the sample phase, versus saline, FIG. 6C
Experimental: A novel object recognition test for assessment of object recognition and memory performance using the GIT1 knock-out mouse was performed in the same open space box as used in the open field test. The novel object recognition test included a sample phase and a test phase. During the sample phase, the mouse was allowed to detect the same two objects placed in an open space box for 10 minutes and, by video shooting the sample phase, times of observing both the objects by the mouse were recorded. As a result, it was found in FIG. 6A that a difference in object detection time between the normal mouse and the GIT1 knock-out mouse is not statistically significant. Further, one of the same two objects, for example, was replaced by a novel object not exposed to the mouse and, after 24 hours, a test period was proceeded. Such a test period was 10 minutes and a time of observing two objects by the mouse was measured during the test period. In this regard, if the nose end of the mouse contacts the object or the mouse heads for the object within 2 cm before the same, this was defined as the observation. For observing recovery of the object recognition and/or memory performance, the present inventive mouse was administered with amphetamine or saline through peritoneal injection at a dose of 4 mg/kg/day and placed in an open space box, 20 minutes before the sample phase.

| Compound | movement distance of the normal mouse in open space (normal mouse (wild type)) | movement distance of the GIT1 knock-out mouse in open space (hyperactivity) (GIT1 knock-out mouse [1]) | abnormal theta waveform in the frontal lobe (EEG) (GIT1 knock-out mouse [2]) | object recognition ability (novel object recognition) (GIT1 knock-out mouse [3]) |
| --- | --- | --- | --- | --- |
| CC(N)Cc1ccccc1 (stereo not drawn) [amphetamine] | considerably long distance | significant recovery | favorably recovered | can be recovered |
| COC(=O)C(c1ccccc1)C1CCCCN1 (stereo not drawn) [methylphenidate] | considerably long distance | significant recovery |  |  |
